According to ChEMBL document CHEMBL4219231, “Nε-Acryloyllysine Piperazides as Irreversible Inhibitors of Transglutaminase 2: Synthesis, Structure-Activity Relationships, and Pharmacokinetic Profiling” (J Med Chem, 2018):
pIC50, pKi: −log10 of the molar value. In brackets after ≈: the same amount, converted by molar mass. Activity calls are given as the source filed them. The rule behind the calls is not given here.

Tests used:
[1] = molecular target: T1, Protein-glutamine gamma-glutamyltransferase (Homo sapiens, UniProt P21980); assay: Inhibition of human TGase 2 using R-I-Cad/DMC as substrate preincubated for 5 mins followed by substrate addition measured at 30 secs interval over 900 secs by fluorescence anisotropy assay
T1 sequence (P21980 whole entry): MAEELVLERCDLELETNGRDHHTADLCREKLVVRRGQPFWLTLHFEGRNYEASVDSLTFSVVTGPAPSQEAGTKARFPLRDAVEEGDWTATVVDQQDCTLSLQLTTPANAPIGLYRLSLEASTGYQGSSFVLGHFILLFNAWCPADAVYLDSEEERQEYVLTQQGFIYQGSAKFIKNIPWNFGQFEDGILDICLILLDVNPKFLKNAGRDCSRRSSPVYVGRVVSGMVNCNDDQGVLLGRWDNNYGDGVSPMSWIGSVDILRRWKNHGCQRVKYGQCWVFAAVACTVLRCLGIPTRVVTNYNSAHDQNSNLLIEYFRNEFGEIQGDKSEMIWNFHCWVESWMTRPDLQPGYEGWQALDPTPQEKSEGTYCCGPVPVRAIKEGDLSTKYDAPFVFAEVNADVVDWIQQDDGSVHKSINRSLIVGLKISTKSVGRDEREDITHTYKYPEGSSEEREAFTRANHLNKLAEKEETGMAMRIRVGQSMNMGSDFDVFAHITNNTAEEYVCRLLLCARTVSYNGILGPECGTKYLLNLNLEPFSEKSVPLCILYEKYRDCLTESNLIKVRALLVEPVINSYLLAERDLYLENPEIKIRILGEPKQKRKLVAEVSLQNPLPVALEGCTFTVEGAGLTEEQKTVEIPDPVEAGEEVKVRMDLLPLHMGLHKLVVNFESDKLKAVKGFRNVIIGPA

[2] = Inhibition of guinea pig TGase 2 using F-Cad/DMC as substrate preincubated for 30 mins followed by substrate addition measured at 30 secs interval over 900 secs by fluorescence anisotropy assay; set-up: species or system Cavia porcellus
[3] = molecular target: T1, Protein-glutamine gamma-glutamyltransferase; assay: Inhibition of TGase 2 in human A375 cells using R-I-Cad/DMC as substrate preincubated for 5 mins followed by substrate addition measured at 30 secs interval over 900 secs by fluorescence anisotropy assay; format: cell-based
[4] = n-octanol-phosphate buffer partition coefficient, log D of compound at pH 7.4 by 19F NMR analysis; format: physicochemical
[5] = Membrane retention, RM of the compound; format: physicochemical
[6] = Chromatographic hydrophobicity index in immobilized artificial membrane at pH 7.4 by HPLC method; format: ADME, cell membranes
[7] = Thermodynamic solubility of the compound in 0.01 M phosphate buffer at pH 7.4 at 22 degC after 26 hrs by UPLC-DAD-MS analysis; format: physicochemical; conditions: read-out: Therm_solubility
[8] = Metabolic stability in mouse liver microsomes assessed as parent compound remaining at 100 uM measured after 60 mins by HPLC-UV analysis; format: ADME, microsome; conditions: microsomes, 1 h, 100 µM
[9] = molecular target: T1, Protein-glutamine gamma-glutamyltransferase; assay: Reversible inhibition of human TGase 2 using Z-Glu(HMC)-Gly-OH as substrate measured at 20 secs interval over 900 secs by fluorimetric assay
Homo sapiens [10] = species on record: Homo sapiens; assay: Selectivity index, ratio of Kinact/Ki for human TGase 2 to Kinact/Ki for human TGase 1
Homo sapiens [11] = species on record: Homo sapiens; assay: Selectivity index, ratio of Kinact/Ki for human TGase 2 to Kinact/Ki for human TGase 3
Homo sapiens [12] = species on record: Homo sapiens; assay: Selectivity index, ratio of Kinact/Ki for human TGase 2 to Kinact/Ki for human TGase 6
Homo sapiens [13] = species on record: Homo sapiens; assay: Selectivity index, ratio of Kinact/Ki for human TGase 2 to Kinact/Ki for human Factor 13a
[14] = Drug metabolism in mouse liver microsomes assessed as metabolic transformation at pyridylpiperazine moiety at 100 uM measured after 60 mins by EPI-mass spectroscopy; format: ADME, microsome; conditions: 1 h
in vitro = conditions: PAMPA
Description: Effective permeability of the compound by PAMPA assay

[15] = Thermodynamic solubility of the compound in 0.01 M phosphate buffer at pH 7.4 at 22 degC after 39 hrs by UPLC-DAD-MS analysis; format: physicochemical; conditions: read-out: Therm_solubility
[16] = molecular target: T2, Protein-glutamine gamma-glutamyltransferase (Homo sapiens) (UniProt P21980); assay: Irreversible inhibition of human TGase 2 using Z-Glu(HMC)-Gly-OH as substrate up to 25 uM measured at 20 secs interval over 900 secs by fluorimetric assay
T2 sequence (whole entry): T1 sequence (P21980 whole entry)

Structure (SMILES)	pIC50 [1]	pIC50 [2]	pIC50 [3]	logD [4]	Rm [5] [%]	CHI [6]	solubility thermodynamic at 26 h [7] [µM]	Stability [8]	pKi [9]	Selectivity Index (Homo sapiens [10])	Selectivity Index (Homo sapiens [11])	Selectivity Index (Homo sapiens [12])	Selectivity Index (Homo sapiens [13])	Drug metabolism [14]	Papp (in vitro) [×10⁻⁶ cm/s]	solubility thermodynamic at 39 h [15] [µM]	inhibition [16]
C=CC(=O)NCCCC[C@H](NC(=O)Cc1ccccc1)C(=O)N1CCN(c2cccc(F)n2)CC1	6.96	6.70	5.96	2.1	14	31.8	645 (≈ 311 µg/mL)	Unstable	5.20	275 to 1920	275 to 1920	275 to 1920	275 to 1920	Metabolite_Detected	13.3	–	–
C=CC(=O)NCCCC[C@H](NC(=O)Cc1ccccc1)C(=O)N1CCN(c2cccc([N+](=O)[O-])n2)CC1	7.00	6.92	6.40	–	10	30.7	–	–	5.65	275 to 1920	275 to 1920	275 to 1920	275 to 1920	–	9.16	452 (≈ 230 µg/mL)	Active
